The values below are quoted from earlier work in patent publication US9029427B2, “Controlled release solid preparation” (Asahi Kasei Chemicals Corporation, priority 2005, dated 2015).

For this data set the following is noted: water.

As for `CCOc1ccccc1C(N)=O` [Ethenzamide], the “amount of solvent required for dissolving 1 g of solute” value is recorded as at least 10000 cm^3.

On to `O=C([O-])c1ccccc1O.[Na+]` [sodium salicylate], for which the “amount of solvent required for dissolving 1 g of solute” value is “less than 1 cm^3”.
